Source: patent publication US20090060928A1, “Topical Toll Like Receptor Ligands as Vaccine Adjuvants” (priority 2006, published 2009)

Columns and labels:
E.G7-OVA cells = experiment: ELISPOT (gamma-interferon release) of spleen cells for T-cell response to OVA positive target cells; type: in vivo, C57BI/6 mice; details: for cellular response to OVA by ELISPOT: FIG. 3B; for T-cell (cellular) response by ELISPOT: FIG. 2A
From the text: FIG. 1A: Mice were immunized to OVA with or without topical application of imiquimod treatment 1× or 3×/wk following each immunization. Spleen cells were collected from each group 1 week following 4 immunizations, and tested by ELISPOT (based on gamma-interferon release) for T-cell response to OVA positive target cells (E.G7-OVA). FIG. 2B Mice were immunized to OVA with topical application of imiquimod 3×/week or with OVA encapsulated into IL-2 liposomes. Imiquimod boosted T-cell responses more strongly than IL-2 liposomes.
(§1) FIG. 3A: Groups of mice were immunized to OVA alone or followed by topical application of imiquimod to the site of immunization 1×/wk. or to a site distal to the immunization. One week following 4 weekly immunizations, sera was collected and tested for anti-OVA IgG subclass antibodies by ELISA. Anti-OVA IgG responses was greater in mice treated with imiquimod both locally and distally than in those immunized to OVA alone. FIG. 3B: Triplicate mice were sacrificed 1 week after 4 immunizations and cellular immune responses to OVA-expressing target E.G7-OVA cells determined by ELIspot assay
(§2) In more detail, groups of 10 C57BI/6 mice were immunized sc weekly×4 to 0.1 mg of ovalbumin (OVA). Some groups were in addition treated with 5% imiquimod cream applied topically to the immunization site once or 3×/week. Control groups were immunized to PBS, to OVA encapsulated into IL-2 liposomes (which we have previously shown is one of the strongest adjvuanrts available), or to irradiated E.G7-OVA cells (a powerful stimulator of anti-OVA T-cell responses). Serum was collected from each mouse at baseline and following the 4th immunization, pooled by immunization group, and assayed for antibodies to OVA by ELISA.
Imiquimod boosted in particular Ig2a and IgG2b responses which were almost undetectable in mice immunized to OVA alone (see FIG. 1 B). This is consistent with the known capacity of this agent to preferentially boost Th1 responses. […] No T-cell responses were detectable in mice immunized similarly to OVA alone.
By contrast, no significant T-cell responses above PBS controls were detectable in mice immunized similarly to OVA alone. We have not studied the adjuvant activity of other TLR receptor ligands such as resiquimod and CpG ODN applied topically away from the immunization site. […] Thus, it is reasonable to expect that all of these will also retain adjuvant activity when applied topically directly over, or away, from the immunization site. Because their specific mechanism of action differs from that of imiquimod, they may have stronger adjuvant activity or may be better able to enhance specific type of immune responses than imiquimod. Combinations of TLR ligands may be able to enhance stronger or broader type of immune response than any one individual TLR ligand alone. This invention is intended to cover these different possibilities.

anti-OVA IgG antibodies = experiment: Anti-OVA antibodies in serum by ELISA after sc OVA immunization with adjuvant; type: in vivo, C57BI/6 mice
From the text: Fig. A: Groups of mice were immunized to OVA alone or followed by topical application of imiquimod to the site of immunization 3×/wk. or to OVA in ILK-2 liposomes. One week following 4 weekly immunizations, sera was collected and tested for anti-OVA IgG antibodies by ELISA. Anti-OVA IgG responses was greater in mice treated with imiquimod than in those immunized to OVA alone. It was as strong as that induced by IL-2 liposomes as the adjuvant. Fig. B: One week following 4 weekly immunizations, IgG1, IgG2a, IgG2b, and IgG3 anti-OVA antibodies was measured in these groups by ELISA, using subclass specific antibodies as probes.
as §1, §2
In these experiments, groups of […] mice were immunized sc weekly×4 to 0.1 mg of ovalbumin (OVA) given in 0.1 ml of PBS injected in the lower abdominal region. One group of mice was also treated with 5% imiquimod applied topically to the skin at a site distal (in the nape of the neck) to the immunization site 1×/week.

OVA positive tumor cells = experiment: Vaccine-induced tumor protective immunity against lethal challenge; type: in vivo, mice; details: 5% cream topically over site of sc OVA immunization
From the text: Importantly, the potency of imiquimod was as great as that of the strongest adjuvant we have studied to date in mice but with less local toxicity.

[1] = Local toxicity of the adjuvant; type: in vivo; details: adjuvant with sc OVA immunization
[2] = topical imiquimod at immunization site, vs OVA only, FIG. 1B

CC(C)Cn1cnc2c(N)nc3ccccc3c21 [imiquimod]
cellular response to OVA by ELISPOT (E.G7-OVA cells; distal application of imiquimod): strong cellular responses | T-cell (cellular) response by ELISPOT (E.G7-OVA cells; imiquimod applied to immunization site 1x/wk following each immunization): slight response | T-cell (cellular) response by ELISPOT (E.G7-OVA cells; imiquimod applied to immunization site 3x/week): very strong response | cellular response to OVA by ELISPOT (E.G7-OVA cells; local application of imiquimod): strong cellular responses | T-cell response compared with IL-2 liposomes (E.G7-OVA cells; topical imiquimod 3x/week vs OVA in IL-2 liposomes, FIG. 2B): more potent stimulator of T-cell responses than IL-2 liposomes | overall IgG anti-OVA antibody response (anti-OVA IgG antibodies; OVA 0.1 mg sc weekly x4 + topical imiquimod at immunization site 3x/wk, vs OVA alone, FIG. 1A): considerably greater | IgG2a titer, times stronger than OVA alone (anti-OVA IgG antibodies; distal imiquimod treatment): 25 times | IgG2b titer, stronger than OVA alone (anti-OVA IgG antibodies; distal imiquimod treatment): 125 | IgG2a titer, times stronger than OVA alone (anti-OVA IgG antibodies; local imiquimod treatment): 125 times | IgG2b titer, stronger than OVA alone (anti-OVA IgG antibodies; local imiquimod treatment): 125 | IgG1 anti-OVA antibody response (anti-OVA IgG antibodies; [2]): reduced | IgG2a anti-OVA antibody response (anti-OVA IgG antibodies; [2]): markedly boosted | IgG2b anti-OVA antibody response (anti-OVA IgG antibodies; [2]): markedly boosted | anti-OVA IgG subclass response (anti-OVA IgG antibodies; topical imiquimod both local and distal to vaccine injection site, vs OVA alone, FIG. 3A): considerably greater | vaccine-induced tumor protective immunity (OVA positive tumor cells): markedly increased | local toxicity [1]: no toxicity at all
